± gives the expanded uncertainty stated by the source.
Conditions: for vapor or sublimation pressure: Liquid, Gas chromatography

Row | SMILES | vapor or sublimation pressure (298.15 K) | vapor or sublimation pressure (310 K) | vapor or sublimation pressure (320 K) | vapor or sublimation pressure (330 K) | vapor or sublimation pressure (340 K) | vapor or sublimation pressure (350 K) | vapor or sublimation pressure (360 K) | vapor or sublimation pressure (370 K) | vapor or sublimation pressure (380 K) | vapor or sublimation pressure (390 K) | vapor or sublimation pressure (400 K) | vapor or sublimation pressure (410 K) | vapor or sublimation pressure (420 K) | vapor or sublimation pressure (430 K) | vapor or sublimation pressure (440 K) | vapor or sublimation pressure (450 K) | vapor or sublimation pressure (460 K) | vapor or sublimation pressure (470 K) | vapor or sublimation pressure (480 K) | vapor or sublimation pressure (490 K) | also measured
1 | C=CC(C)(O)CC/C=C(/C)CCC=C(C)C (centres undefined) [(Z)-3,7,11-trimethyldodeca-1,6,10-trien-3-ol] | 7.5e-05 ± 4e-05 kPa | 0.00032 ± 0.0001 kPa | 0.001 ± 0.0003 kPa | 0.0026 ± 0.0008 kPa | 0.0067 ± 0.0017 kPa | 0.016 ± 0.005 kPa | 0.034 ± 0.011 kPa | 0.071 ± 0.021 kPa | 0.14 ± 0.039 kPa | 0.26 ± 0.067 kPa | 0.46 ± 0.11 kPa | 0.79 ± 0.16 kPa | 1.3 ± 0.22 kPa | 2.1 ± 0.3 kPa | 3.3 ± 0.4 kPa | 4.9 ± 0.49 kPa | 7.2 ± 0.61 kPa | 10 ± 0.78 kPa | 15 ± 1.2 kPa | 20 ± 1.6 kPa | vapor or sublimation pressure (500 K): 27 ± 2.1 kPa; vapor or sublimation pressure (550.3 K): 101.33 ± 13 kPa
2 | OC12CC3CC(CC(C3)C1)C2 [1-adamantanol] | 0.0019 ± 0.0002 kPa | 0.0062 ± 0.0005 kPa | 0.015 ± 0.002 kPa | 0.035 ± 0.005 kPa | 0.074 ± 0.011 kPa | 0.15 ± 0.021 kPa | 0.28 ± 0.038 kPa | 0.51 ± 0.063 kPa | 0.88 ± 0.095 kPa | 1.5 ± 0.14 kPa | 2.3 ± 0.19 kPa | 3.6 ± 0.28 kPa | 5.4 ± 0.42 kPa | 7.9 ± 0.61 kPa | 11 ± 0.85 kPa | 16 ± 1.2 kPa | 22 ± 1.7 kPa | 29 ± 2.2 kPa | 38 ± 3.1 kPa | 49 ± 4.7 kPa | vapor or sublimation pressure (500 K): 62 ± 7.6 kPa; vapor or sublimation pressure (521.2 K): 101.33 ± 10 kPa
3 | C=CC(C)(O)CC/C=C(\C)CCC=C(C)C (centres undefined) [(E)-3,7,11-trimethyldodeca-1,6,10-trien-3-ol] | 6e-05 ± 2e-05 kPa | 0.00024 ± 8e-05 kPa | 0.00074 ± 0.00025 kPa | 0.0021 ± 0.0007 kPa | 0.0053 ± 0.0016 kPa | 0.013 ± 0.004 kPa | 0.028 ± 0.009 kPa | 0.058 ± 0.018 kPa | 0.115 ± 0.033 kPa | 0.22 ± 0.058 kPa | 0.39 ± 0.092 kPa | 0.67 ± 0.14 kPa | 1.1 ± 0.2 kPa | 1.8 ± 0.27 kPa | 2.8 ± 0.34 kPa | 4.3 ± 0.43 kPa | 6.3 ± 0.54 kPa | 9.1 ± 0.71 kPa | 13 ± 1 kPa | 18 ± 1.4 kPa | vapor or sublimation pressure (500 K): 24 ± 1.9 kPa; vapor or sublimation pressure (554.7 K): 101.33 ± 13 kPa
4 | C[C@@H]1CC[C@H]2C(C)(C)[C@H]3C[C@@]12CC[C@@]3(C)O [(+)-cedrol] | 7e-05 ± 2e-05 kPa | 0.00029 ± 0.0001 kPa | 0.00084 ± 0.00027 kPa | 0.0022 ± 0.0007 kPa | 0.0055 ± 0.0018 kPa | 0.013 ± 0.004 kPa | 0.027 ± 0.009 kPa | 0.054 ± 0.017 kPa | 0.1 ± 0.031 kPa | 0.19 ± 0.05 kPa | 0.33 ± 0.08 kPa | 0.55 ± 0.12 kPa | 0.89 ± 0.16 kPa | 1.4 ± 0.21 kPa | 2.1 ± 0.27 kPa | 3.1 ± 0.33 kPa | 4.5 ± 0.4 kPa | 6.3 ± 0.5 kPa | 8.7 ± 0.68 kPa | 12 ± 0.93 kPa | vapor or sublimation pressure (500 K): 16 ± 1.2 kPa; vapor or sublimation pressure (583.5 K): 101.33 ± 15 kPa; Normal melting temperature (Crystal, visual observation): 86.00 ± 3 °C
